Data reported in patent US9902702B2, “Spirocycloheptanes as inhibitors of rock” (BRISTOL-MYERS SQUIBB COMPANY, priority 2014, dated 2018).

What follows are molecules tested against ROCK2 (Homo sapiens, UniProt O75116) (assay: ROCK assay: phosphorylation of FITC peptide substrate, LABCHIP 3000 mobility shift). Details: 5 μM ATP, 1.5 μM peptide substrate; read-out: ROCK2 Activity (ROCK IC50 range).
Type: biochemical
Outline: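 Rho kinase variant phosphorylates 1.5 μM FITC-AHA-AKRRRLSSLRA-OH with 5 μM ATP in 20 mM HEPES pH 7.5, 20 mM MgCl2, 0.015% Brij-35, 4 mM DTT, DMSO <2%. EDTA stops the reaction, and phospho and non-phospho peptides are resolved by LabChip 3000 mobility shift. IC50 from dose-response curve fit.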

Chain of ROCK2 (O75116 whole entry, species assumed): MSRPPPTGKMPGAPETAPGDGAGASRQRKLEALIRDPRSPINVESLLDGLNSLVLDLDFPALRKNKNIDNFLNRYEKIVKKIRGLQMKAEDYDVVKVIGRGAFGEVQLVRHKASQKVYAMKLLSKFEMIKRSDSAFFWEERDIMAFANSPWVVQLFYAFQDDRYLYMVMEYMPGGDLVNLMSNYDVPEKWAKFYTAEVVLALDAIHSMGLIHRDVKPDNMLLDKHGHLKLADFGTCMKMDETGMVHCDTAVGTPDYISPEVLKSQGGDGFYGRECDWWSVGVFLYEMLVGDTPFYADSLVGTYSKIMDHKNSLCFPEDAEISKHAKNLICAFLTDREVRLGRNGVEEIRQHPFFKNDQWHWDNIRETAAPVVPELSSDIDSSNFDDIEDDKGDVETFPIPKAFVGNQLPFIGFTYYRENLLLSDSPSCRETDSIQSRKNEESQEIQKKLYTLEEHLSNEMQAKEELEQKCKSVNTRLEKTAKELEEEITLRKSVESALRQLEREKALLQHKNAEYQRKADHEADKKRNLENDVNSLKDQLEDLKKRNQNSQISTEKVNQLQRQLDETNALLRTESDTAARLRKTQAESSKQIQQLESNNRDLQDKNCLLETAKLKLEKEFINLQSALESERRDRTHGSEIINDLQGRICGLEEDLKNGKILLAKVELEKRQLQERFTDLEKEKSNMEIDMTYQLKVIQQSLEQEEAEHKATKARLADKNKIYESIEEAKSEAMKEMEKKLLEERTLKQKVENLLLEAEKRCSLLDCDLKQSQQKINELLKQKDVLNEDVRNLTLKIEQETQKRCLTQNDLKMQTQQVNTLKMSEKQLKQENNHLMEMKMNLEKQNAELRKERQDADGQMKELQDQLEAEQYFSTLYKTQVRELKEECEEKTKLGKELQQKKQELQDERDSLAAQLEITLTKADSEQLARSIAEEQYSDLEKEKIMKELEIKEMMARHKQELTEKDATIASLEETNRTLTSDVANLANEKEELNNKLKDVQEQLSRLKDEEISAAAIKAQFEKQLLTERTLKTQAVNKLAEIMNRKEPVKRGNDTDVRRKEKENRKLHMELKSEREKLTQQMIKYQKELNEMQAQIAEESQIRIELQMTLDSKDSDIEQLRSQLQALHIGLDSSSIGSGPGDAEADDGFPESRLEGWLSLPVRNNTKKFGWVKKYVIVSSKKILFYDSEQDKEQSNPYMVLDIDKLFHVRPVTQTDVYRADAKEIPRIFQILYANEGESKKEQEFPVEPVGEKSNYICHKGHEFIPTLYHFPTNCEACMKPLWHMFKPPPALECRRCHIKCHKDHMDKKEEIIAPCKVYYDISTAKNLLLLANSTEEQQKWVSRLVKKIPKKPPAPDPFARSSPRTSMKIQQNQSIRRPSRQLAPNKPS

IC50 [nM] | SMILES
2.01 to 5 | O=C(NC1CC2(C1)CC(c1n[nH]c(=O)c3ccccc13)C2)c1cnn2c(C3CC3)c(O)ccc12 (stereo not drawn) [Example 128, 7-cyclopropyl-6-hydroxy-N-((αR)-6-(4-oxo-3,4-dihydrophthalazin-1-yl)spiro[3.3]heptan-2-yl)pyrazolo[1,5-α]pyridine-3-carboxamide]
5.1 to 15 | COc1ccccc1-n1cc(C(=O)NC2CC3(C2)CC(c2n[nH]c(=O)c4ccccc24)C3)nn1 (stereo not drawn) [Example 129, 1-(2-methoxyphenyl)-N-((αR)-6-(4-oxo-3,4-dihydrophthalazin-1-yl)spiro[3.3]heptan-2-yl)-1H-1,2,3-triazole-4-carboxamide]
5.1 to 15 | CN(C)Cc1c(OCc2ccccc2)ccc2c(C(=O)NC3CC4(C3)CC(c3n[nH]c(=O)c5ccccc35)C4)cnn12 (stereo not drawn) [Example 130, 6-(benzyloxy)-7-((dimethylamino)methyl)-N-((αR)-6-(4-oxo-3,4-dihydrophthalazin-1-yl)spiro[3.3]heptan-2-yl)pyrazolo[1,5-α]pyridine-3-carboxamide]
0.2 to 2 | O=C(NC1CC2(C1)CC(c1n[nH]c(=O)c3ccccc13)C2)c1cnn2cc(OC(CF)CF)ccc12 (stereo not drawn) [Example 131, 6-((1,3-difluoropropan-2-yl)oxy)-N-((αR)-6-(4-oxo-3,4-dihydrophthalazin-1-yl)spiro[3.3]heptan-2-yl)pyrazolo[1,5-α]pyridine-3-carboxamide]
0.2 to 2 | O=C(NC1CC2(C1)CC(c1n[nH]c(=O)c3ccccc13)C2)c1cnn2cc(OC3CCS(=O)(=O)CC3)ccc12 (stereo not drawn) [Example 132, 6-((1,1-dioxidotetrahydro-2H-thiopyran-4-yl)oxy)-N-((αR)-6-(4-oxo-3,4-dihydrophthalazin-1-yl)spiro[3.3]heptan-2-yl)pyrazolo[1,5-α]pyridine-3-carboxamide]
0.2 to 2 | O=C(NC1CC2(C1)CC(c1n[nH]c(=O)c3ccccc13)C2)c1cnn2cc(OCCC(F)(F)F)ccc12 (stereo not drawn) [Example 133, N-((αR)-6-(4-oxo-3,4-dihydrophthalazin-1-yl)spiro[3.3]heptan-2-yl)-6-(3,3,3-trifluoropropoxy)pyrazolo[1,5-α]pyridine-3-carboxamide]
0.2 to 2 | O=C(NC1CC2(C1)CC(c1n[nH]c(=O)c3ccccc13)C2)c1cnn2cc(OC3CCC(F)(F)CC3)ccc12 (stereo not drawn) [Example 134, 6-((4,4-difluorocyclohexyl)oxy)-N-((αR)-6-(4-oxo-3,4-dihydrophthalazin-1-yl)spiro[3.3]heptan-2-yl)pyrazolo[1,5-α]pyridine-3-carboxamide]
0.2 to 2 | O=C(NC1CC2(C1)CC(c1n[nH]c(=O)c3ccccc13)C2)c1cnn2cc(OC3CCOCC3)ccc12 (stereo not drawn) [Example 135, N-((αR)-6-(4-oxo-3,4-dihydrophthalazin-1-yl)spiro[3.3]heptan-2-yl)-6-((tetrahydro-2H-pyran-4-yl)oxy)pyrazolo[1,5-α]pyridine-3-carboxamide]
2.01 to 5 | COC(=O)N1CC(Oc2ccc3c(C(=O)NC4CC5(C4)CC(c4n[nH]c(=O)c6ccccc46)C5)cnn3c2)C1 (stereo not drawn) [Example 136]
2.01 to 5 | O=C(NC1CC2(C1)CC(c1n[nH]c(=O)c3ccccc13)C2)c1cnn2cc(O)ccc12 (stereo not drawn) [Example 137, 6-hydroxy-N-((αR)-6-(4-oxo-3,4-dihydrophthalazin-1-yl)spiro[3.3]heptan-2-yl)pyrazolo[1,5-α]pyridine-3-carboxamide]
0.2 to 2 | O=C(NC1CC2(C1)CC(c1n[nH]c(=O)c3ccccc13)C2)c1cnn2cc(OCCOCC(F)(F)F)ccc12 (stereo not drawn) [Example 139, N-((αR)-6-(4-oxo-3,4-dihydrophthalazin-1-yl)spiro[3.3]heptan-2-yl)-6-(2-(2,2,2-trifluoroethoxy)ethoxy)pyrazolo[1,5-α]pyridine-3-carboxamide]
0.2 to 2 | O=C(NC1CC2(C1)CC(c1n[nH]c(=O)c3ccccc13)C2)c1cnn2cc(OCc3nnc(C4CC4)s3)ccc12 (stereo not drawn) [Example 140, 6-((5-cyclopropyl-1,3,4-thiadiazol-2-yl)methoxy)-N-((αR)-6-(4-oxo-3,4-dihydrophthalazin-1-yl)spiro[3.3]heptan-2-yl)pyrazolo[1,5-α]pyridine-3-carboxamide]
5.1 to 15 | O=C(NC1CC2(C1)CC(c1n[nH]c(=O)c3ccccc13)C2)c1cnn2c(C(F)(F)F)c(OCc3ccccc3)ccc12 (stereo not drawn) [Example 141, 6-(benzyloxy)-N-((αR)-6-(4-oxo-3,4-dihydrophthalazin-1-yl)spiro[3.3]heptan-2-yl)-7-(trifluoromethyl)pyrazolo[1,5-α]pyridine-3-carboxamide]
2.01 to 5 | CC(C)(O)Cn1nc(C(=O)N[C@H]2CC3(C2)C[C@H](c2n[nH]c(=O)c4ccccc42)C3)c2ccc(-c3ccccc3)cc21 (stereo partly drawn) [Example 143, 1-(2-hydroxy-2-methylpropyl)-N-((aR)-6-(4-oxo-3,4-dihydrophthalazin-1-yl)spiro[3.3]heptan-2-yl)-6-phenyl-1H-indazole-3-carboxamide]
5.1 to 15 | CC(C)(O)Cn1nc(C(=O)NC2CC3(C2)CC(c2n[nH]c(=O)c4ccccc24)C3)c2ccc(-c3ccc(Cl)cc3)cc21 (stereo not drawn) [Example 144, 6-(4-chlorophenyl)-1-(2-hydroxy-2-methylpropyl)-N-((αR)-6-(4-oxo-3,4-dihydrophthalazin-1-yl)spiro[3.3]heptan-2-yl)-1H-indazole-3-carboxamide]
2.01 to 5 | Cn1ccc(-c2ccc3c(C(=O)NC4CC5(C4)CC(c4n[nH]c(=O)c6ccccc46)C5)nn(CC(C)(C)O)c3c2)n1 (stereo not drawn) [Example 145, 1-(2-hydroxy-2-methylpropyl)-6-(1-methyl-1H-pyrazol-3-yl)-N-((αR)-6-(4-oxo-3,4-dihydrophthalazin-1-yl)spiro[3.3]heptan-2-yl)-1H-indazole-3-carboxamide]
2.01 to 5 | Cn1nccc1-c1ccc2c(C(=O)NC3CC4(C3)CC(c3n[nH]c(=O)c5ccccc35)C4)nn(CC(C)(C)O)c2c1 (stereo not drawn) [Example 146, 1-(2-hydroxy-2-methylpropyl)-6-(1-methyl-1H-pyrazol-5-yl)-N-((αR)-6-(4-oxo-3,4-dihydrophthalazin-1-yl)spiro[3.3]heptan-2-yl)-1H-indazole-3-carboxamide]
2.01 to 5 | Cn1cc(-c2ccc3c(C(=O)NC4CC5(C4)CC(c4n[nH]c(=O)c6ccccc46)C5)nn(CC(C)(C)O)c3c2)cn1 (stereo not drawn) [Example 147, 1-(2-hydroyx-2-methylpropyl)-6-(1-methyl-1H-pyrazol-4-yl)-N-((αR)-6-(4-oxo-3,4-dihydrophthalazin-1-yl)spiro[3.3]heptan-2-yl)-1H-indazole-3-carboxamide]
5.1 to 15 | CC(C)(O)Cn1nc(C(=O)NC2CC3(C2)CC(c2n[nH]c(=O)c4ccccc24)C3)c2ccc(C=Cc3ccccc3)cc21 (stereo not drawn) [Example 148, 1-(2-hydroxy-2-methylpropyl)-N-((αR)-6-(4-oxo-3,4-dihydrophthalazin-1-yl)spiro[3.3]heptan-2-yl)-6-((E)-styryl)-1H-indazole-3-carboxamide]
5.1 to 15 | CC(C)(O)Cn1nc(C(=O)NC2CC3(C2)CC(c2n[nH]c(=O)c4ccccc24)C3)c2ccc(C=CC3CC3)cc21 (stereo not drawn) [Example 149, 6-((E)-2-cyclopropylvinyl)-1-(2-hydroxy-2-methylpropyl)-N-((αR)-6-(4-oxo-3,4-dihydrophthalazin-1-yl)spiro[3.3]heptan-2-yl)-1H-indazole-3-carboxamide]
2.01 to 5 | COc1cccc(-c2ccc3c(C(=O)NC4CC5(C4)CC(c4n[nH]c(=O)c6ccccc46)C5)nn(CC(C)(C)O)c3c2)n1 (stereo not drawn) [Example 150, 1-(2-hydroxy-2-methylpropyl)-6-(6-methoxypyridin-2-yl)-N-((αR)-6-(4-oxo-3,4-dihydrophthalazin-1-yl)spiro[3.3]heptan-2-yl)-1H-indazole-3-carboxamide]
5.1 to 15 | CC(C)(O)Cn1nc(C(=O)NC2CC3(C2)CC(c2n[nH]c(=O)c4ccccc24)C3)c2ccc(/C=C\C3CC3)cc21 (stereo not drawn) [Example 151, 6-((Z)-2-cyclopropylvinyl)-1-(2-hydroxy-2-methylpropyl)-N-((αR)-6-(4-oxo-3,4-dihydrophthalazin-1-yl)spiro[3.3]heptan-2-yl)-1H-indazole-3-carboxamide]
2.01 to 5 | CC(C)(O)Cn1nc(C(=O)N[C@H]2CC3(C2)C[C@H](c2n[nH]c(=O)c4ccccc42)C3)c2ccc(Br)cc21 (stereo partly drawn) [Example 152, 6-bromo-1-(2-hydroxy-2-methylpropyl)-N-((αR)-6-(4-oxo-3,4-dihydrophthalazin-1-yl)spiro[3.3]heptan-2-yl)-1H-indazole-3-carboxamide]
2.01 to 5 | COc1ccc(-c2ccc3c(C(=O)NC4CC5(C4)CC(c4n[nH]c(=O)c6ccccc46)C5)nn(CC(C)(C)O)c3c2)cc1 (stereo not drawn) [Example 153, 1-(2-hydroxy-2-methylpropyl)-6-(4-methoxyphenyl)-N-((αR)-6-(4-oxo-3,4-dihydrophthalazin-1-yl)spiro[3.3]heptan-2-yl)-1H-indazole-3-carboxamide]
2.01 to 5 | Cn1cc(-c2ccc3c(C(=O)NC4CC5(C4)CC(c4n[nH]c(=O)c6ccccc46)C5)nn(CC(C)(C)O)c3c2)nn1 (stereo not drawn) [Example 154, 1-(2-hydroxy-2-methylpropyl)-6-(1-methyl-1H-1,2,3-triazol-4-yl)-N-((αR)-6-(4-oxo-3,4-dihydrophthalazin-1-yl)spiro[3.3]heptan-2-yl)-1H-indazole-3-carboxamide]

SMILES | IC50 [nM]
O=C(NC1CC2(C1)CC(c1n[nH]c(=O)c3ccccc13)C2)c1cnn2cc(OC3CC(F)(F)C3)ccc12 (stereo not drawn) [Example 138, 6-(3,3-difluorocyclobutoxy)-N-((αR)-6-(4-oxo-3,4-dihydrophthalazin-1-yl)spiro[3.3]heptan-2-yl)pyrazolo[1,5-α]pyridine-3-carboxamide] | 0.2 to 2
CC(C)(O)Cn1nc(C(=O)N[C@H]2CC3(C2)C[C@H](c2n[nH]c(=O)c4ccccc42)C3)c2ccc(C3CC3)cc21 (stereo partly drawn) [Example 142, 6-cyclopropyl-1-(2-hydroxy-2-methylpropyl)-N-((aR)-6-(4-oxo-3,4-dihydrophthalazin-1-yl)spiro[3.3]heptan-2-yl)-1H-indazole-3-carboxamide] | 2.01 to 5
